According to patent US7727736B2, “Soluble phospholipids for use in clotting factor assays” (The University of North Carolina at Chapel Hill, priority 2003, dated 2010):

Target: T1, FVa2 (Homo sapiens, UniProt P12259)
T1 construct: from tissue; host or cells: fresh frozen human plasma (American Red Cross Center, Durham, N.C.)
T1 sequence (P12259 29-737 limits assumed): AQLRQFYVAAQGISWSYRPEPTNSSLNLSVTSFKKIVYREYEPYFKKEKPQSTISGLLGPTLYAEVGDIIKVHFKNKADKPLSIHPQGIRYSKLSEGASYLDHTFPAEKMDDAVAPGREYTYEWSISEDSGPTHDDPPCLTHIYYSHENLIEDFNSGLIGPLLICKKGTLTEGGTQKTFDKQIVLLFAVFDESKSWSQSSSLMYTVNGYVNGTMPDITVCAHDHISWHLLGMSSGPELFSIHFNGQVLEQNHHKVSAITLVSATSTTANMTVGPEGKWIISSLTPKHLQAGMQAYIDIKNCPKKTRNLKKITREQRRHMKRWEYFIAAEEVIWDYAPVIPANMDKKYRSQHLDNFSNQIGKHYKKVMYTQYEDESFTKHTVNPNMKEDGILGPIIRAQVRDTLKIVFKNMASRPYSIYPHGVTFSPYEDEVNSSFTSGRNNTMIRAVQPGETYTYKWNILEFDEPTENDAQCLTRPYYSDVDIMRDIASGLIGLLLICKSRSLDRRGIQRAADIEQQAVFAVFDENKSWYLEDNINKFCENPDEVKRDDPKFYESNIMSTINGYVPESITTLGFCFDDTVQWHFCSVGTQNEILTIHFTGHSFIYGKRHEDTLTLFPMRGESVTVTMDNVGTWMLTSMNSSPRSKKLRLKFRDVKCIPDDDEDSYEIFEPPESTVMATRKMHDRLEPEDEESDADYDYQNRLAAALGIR
T1 sequence (P12259 1574-2224 limits assumed): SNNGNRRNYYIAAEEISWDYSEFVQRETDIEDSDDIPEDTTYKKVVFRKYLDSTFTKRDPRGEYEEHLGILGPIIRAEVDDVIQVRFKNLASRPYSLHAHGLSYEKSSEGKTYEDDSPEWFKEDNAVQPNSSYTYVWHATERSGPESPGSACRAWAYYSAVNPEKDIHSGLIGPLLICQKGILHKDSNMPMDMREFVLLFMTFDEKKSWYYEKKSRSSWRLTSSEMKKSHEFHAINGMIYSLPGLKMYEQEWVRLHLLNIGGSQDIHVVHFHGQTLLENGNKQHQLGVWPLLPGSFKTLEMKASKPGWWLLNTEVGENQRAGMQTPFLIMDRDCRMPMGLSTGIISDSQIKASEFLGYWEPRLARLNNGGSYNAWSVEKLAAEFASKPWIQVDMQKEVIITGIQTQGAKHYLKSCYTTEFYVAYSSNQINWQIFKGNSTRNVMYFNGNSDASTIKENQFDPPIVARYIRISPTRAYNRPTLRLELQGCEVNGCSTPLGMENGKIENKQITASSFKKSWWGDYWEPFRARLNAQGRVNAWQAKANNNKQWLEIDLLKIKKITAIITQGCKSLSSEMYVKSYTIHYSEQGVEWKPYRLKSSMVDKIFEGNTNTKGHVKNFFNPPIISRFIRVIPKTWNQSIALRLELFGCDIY
Assay: Native gel electrophoresis (Ferguson analysis), C6PS bound to FVa2
Type: binding
Conditions: 400 μM C6PS
Description: Native Gel Electrophoresis. This method has been used to document the association of blood coagulation proteins in solution (Majumder, et al. (2002) supra; Majumder, et al. (2003) supra). A mixture of 1 nM FXa and 1 nM FVa was incubated at 37° C. for 2 minutes in the presence and absence of 400 μM C6PS and the two samples were run together with known marker proteins (270 kiloDalton-14.2 kiloDalton; SIGMA, St. Louis, Mo.) on five gels (5, 6, 6.5, 7, and 8% total acrylamide with bisacrylamide/acrylamide being 1/29 in all cases) in a BIORAD® MINI-PROTEAN® II minigel apparatus (BIORAD® Corp., Hercules, Calif.) and stained with colloidal Coomassie blue (Mitra, et al. (1994) supra). FXa and FVa, at these same concentrations and in the presence of 400 μM C6PS, were run separately as controls. Protein retardation coefficients, which depend to a good approximation only on the hydrodynamic size and shape of the protein, were determined for both the marker and unknown proteins (Ferguson (1964) Metabolism 13:985-1002). A log-log plot of the retardation coefficient against the molecular weights of the marker proteins produced a linear curve from which the molecular weight of the FVa•FXa complex was determined from its measured retardation coefficient (Bryan (1977) Anal. Biochem. 78(2):513-9). […]

CCCCCC(=O)OC[C@H](COP(=O)(O)OC[C@H](N)C(=O)O)OC(=O)CCCCC [C6PS, 1,2-dicaproyl-sn-glycero-3-phospho-L-serine]
molecules of C6PS bound to FVa2 from molecular mass: 4.2 molecules
